Experimental findings from patent US8569267B2, “Tetracyclic tetrahydrofuran derivatives containing cyclic amine side chain” (Janssen Pharmaceutica, NV, priority 2005, dated 2013) are described below.

The target of test [1] is T1, human cloned 5-HT2A receptor, expressed in L929 cells (Homo sapiens, UniProt P28223).
T1 construct: expressed in transfected cells; host or cells: L929 cells
The test can be described thus: In vitro binding affinity for 5-HT2A receptor ([125I]R91150 radioligand binding). The settings on record: human cloned 5-HT2A receptor in L929 cells, [125I]R91150; for IC50: read-out: 5-HT2A pIC50 (converted). An outline of the steps:
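Competition radioligand binding to human cloned 5-HT2A receptor expressed in L929 cells, using [125I]R91150 with test compound at various concentrations. At equilibrium, receptor-bound radioactivity was separated from free and counted. Affinity reflects inhibition of radioligand binding.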

In test [2] the target is T2, NET (norepinephrine transporter) (Rattus norvegicus, UniProt Q63380).
T2 construct: Cortex from rat brain was collected and homogenised; from tissue; host or cells: rat brain cortex
T2 sequence (Q63380 1-617): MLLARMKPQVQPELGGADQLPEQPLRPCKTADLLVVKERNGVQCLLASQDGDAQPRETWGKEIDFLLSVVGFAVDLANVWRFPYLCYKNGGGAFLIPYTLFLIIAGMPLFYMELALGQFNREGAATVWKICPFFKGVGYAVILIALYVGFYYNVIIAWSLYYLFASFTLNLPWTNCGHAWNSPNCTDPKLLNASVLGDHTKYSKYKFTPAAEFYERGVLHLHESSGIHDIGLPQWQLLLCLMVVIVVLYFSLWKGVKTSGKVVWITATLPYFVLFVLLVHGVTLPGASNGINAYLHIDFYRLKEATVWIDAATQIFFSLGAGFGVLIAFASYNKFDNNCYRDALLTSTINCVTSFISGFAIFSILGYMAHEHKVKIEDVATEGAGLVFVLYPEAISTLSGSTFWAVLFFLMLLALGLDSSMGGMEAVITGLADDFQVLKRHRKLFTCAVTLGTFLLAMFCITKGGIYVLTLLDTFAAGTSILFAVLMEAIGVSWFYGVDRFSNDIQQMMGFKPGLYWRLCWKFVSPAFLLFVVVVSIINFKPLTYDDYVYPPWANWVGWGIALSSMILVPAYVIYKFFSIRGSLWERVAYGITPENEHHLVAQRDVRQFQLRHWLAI
Kind of test: In vitro determination of NET reuptake inhibition ([3H]Nixosetine binding, rat brain cortex). The following applies: rat brain cortex; for IC50: read-out: NET pIC50 (converted). Put shortly:
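Rat cortex homogenised in Tris 50 mM, NaCl 120 mM, KCl 5 mM, pH 7.4 was used for competition binding against [3H]nisoxetine. Bound radioligand was collected by filtration on GF/B filters and counted by scintillation. Percentage specific binding and competition curves were derived.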

Test [3] addresses T3, human Dopamine D2L receptor (Homo sapiens, UniProt P14416).
T3 construct: expressed in transfected cells; host or cells: CHO cells
Kind of test: In vitro binding affinity for human D2L receptor ([3H]Spiperone binding). The following applies: human D2L receptor-transfected CHO cell membranes; for IC50: read-out: D2L pIC50 (converted). Put shortly:
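Membranes from CHO cells transfected with the receptor were incubated with [3H]Spiperone (diluted to 2 nmol/L before addition) and compound for 30 min at 37° C. Buffer was Tris-HCl, pH 7.7, with NaCl, CaCl2, MgCl2 and KCl, and non-specific binding was defined with 10^−6 mol/l Butaclamol. Bound radioactivity was collected by filtration, counted by scintillation, and competition curves calculated as percent specific binding.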

Test [4] deals with T4, human cloned 5-HT2C receptor, expressed in CHO cells (Homo sapiens, UniProt P28335).
T4 construct: expressed in transfected cells; host or cells: CHO cells
T4 sequence (P28335 33-458): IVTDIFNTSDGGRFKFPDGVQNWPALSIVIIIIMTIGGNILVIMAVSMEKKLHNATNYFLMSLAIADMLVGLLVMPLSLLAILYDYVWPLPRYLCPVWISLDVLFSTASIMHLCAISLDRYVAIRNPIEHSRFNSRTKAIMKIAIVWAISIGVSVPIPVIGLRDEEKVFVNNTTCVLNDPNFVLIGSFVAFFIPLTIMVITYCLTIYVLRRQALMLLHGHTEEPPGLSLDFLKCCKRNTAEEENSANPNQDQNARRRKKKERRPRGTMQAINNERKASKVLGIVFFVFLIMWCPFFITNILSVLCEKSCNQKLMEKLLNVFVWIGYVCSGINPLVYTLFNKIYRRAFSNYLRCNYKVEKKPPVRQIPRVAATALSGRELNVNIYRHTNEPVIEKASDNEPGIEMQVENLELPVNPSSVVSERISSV
The test can be described thus: In vitro binding affinity for 5-HT2C receptor ([3H]mesulergine radioligand binding). The settings on record: human cloned 5-HT2C receptor; for IC50: read-out: 5-HT2C pIC50 (converted). An outline of the steps: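 Competition radioligand binding: varying test-compound concentrations incubated with receptor preparation and radioligand to binding equilibrium. Bound radioactivity separated from free and counted; affinity inferred from concentration-dependent inhibition of radioligand binding.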

T1 sequence (P28223 whole entry): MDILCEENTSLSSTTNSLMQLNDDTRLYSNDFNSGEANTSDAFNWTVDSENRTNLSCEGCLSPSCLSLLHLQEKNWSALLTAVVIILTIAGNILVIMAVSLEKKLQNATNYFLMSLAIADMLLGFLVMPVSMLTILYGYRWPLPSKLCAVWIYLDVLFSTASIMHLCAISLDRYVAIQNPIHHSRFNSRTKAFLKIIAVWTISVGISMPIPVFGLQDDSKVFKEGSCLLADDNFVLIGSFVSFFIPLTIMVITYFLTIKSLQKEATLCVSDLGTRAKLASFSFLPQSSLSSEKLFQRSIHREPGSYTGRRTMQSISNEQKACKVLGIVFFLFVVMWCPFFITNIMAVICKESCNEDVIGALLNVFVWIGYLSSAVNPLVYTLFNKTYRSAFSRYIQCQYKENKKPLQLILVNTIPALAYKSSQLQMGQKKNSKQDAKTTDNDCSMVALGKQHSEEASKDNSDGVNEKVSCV
T3 sequence (P14416 whole entry): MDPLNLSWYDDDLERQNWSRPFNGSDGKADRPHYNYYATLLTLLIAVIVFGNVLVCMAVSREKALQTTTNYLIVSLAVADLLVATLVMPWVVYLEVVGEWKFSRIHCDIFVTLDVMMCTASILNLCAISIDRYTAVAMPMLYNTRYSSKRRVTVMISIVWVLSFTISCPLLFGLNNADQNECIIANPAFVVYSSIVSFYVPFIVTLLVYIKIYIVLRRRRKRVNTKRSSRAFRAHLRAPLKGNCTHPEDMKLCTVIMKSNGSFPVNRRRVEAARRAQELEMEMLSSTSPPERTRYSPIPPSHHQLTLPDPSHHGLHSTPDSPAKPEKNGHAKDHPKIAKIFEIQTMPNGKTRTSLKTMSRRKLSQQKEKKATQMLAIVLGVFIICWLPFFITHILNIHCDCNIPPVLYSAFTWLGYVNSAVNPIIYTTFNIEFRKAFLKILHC

In the case of `N#Cc1cccc(OC2CCN(CC3CC4c5ccccc5Cc5ccc(F)cc5C4O3)C2)c1` (mixture of isomers) [Compound 29], the IC50 in test [1] was 7.24 nM; in test [2], 8510 nM; in test [3], 14.5 nM; in test [4], 3.39 nM.
For `N#CCCNC(=O)C1CCN(CC2CC3c4ccccc4Cc4ccc(F)cc4C3O2)CC1` (stereo not shown) [Compound 174] the same measures were 1.62 nM, over 10000 nM, 15.1 nM and 2.19 nM.
For `OC1CCN(CC2CC3c4ccccc4Sc4ccc(F)cc4C3O2)C1` (racemic) [Compound 44] the same measures were under 10 nM, 282 nM, 10 nM and 9.33 nM.
The matching figures for `COC(=O)C(Cc1ccc(Cl)cc1)NC(=O)C1CCN(CC2CC3c4ccccc4Cc4ccc(F)cc4C3O2)CC1` (mixture of isomers) [Compound 184]: 1.41 nM, 3890 nM, 25.1 nM and 5.75 nM.
For `CCNC(=O)N1CCN(C[C@H]2C[C@@H]3c4ccccc4Cc4ccc(F)cc4[C@@H]3O2)CC1` [Compound 86], the IC50 is 0.832 nM in test [1], 7080 nM in test [2], 55 nM in test [3] and 3.02 nM in test [4].
The matching figures for `COC(=O)C1CCN(C[C@H]2C[C@@H]3c4ccccc4Cc4ccc(F)cc4[C@@H]3O2)C1` (stereo partly shown) [Compound 12]: 1.17 nM, 759 nM, 6.31 nM and 2.04 nM.
As for `O=C(NC1CCCCC1)N1CCN(CC2CC3c4ccccc4Cc4ccc(F)cc4C3O2)CC1` (stereo not shown) [Compound 95], the IC50 in test [1] was 1.74 nM; in test [2], 9550 nM; in test [3], 69.2 nM; in test [4] it was 7.59 nM.
For the compound `CC(=O)C1(c2ccccc2)CCN(C[C@H]2C[C@@H]3c4ccccc4Cc4ccc(F)cc4[C@@H]3O2)CC1.O=C(O)C(=O)O` [Compound 273], the “5-HT2A pIC50” value in test [1] turned out to be 8.48. Also, in test [2], the “NET pIC50” value is reported as under 5. For the same compound, the “D2L pIC50” value in test [3] is reported as 7.71. The “5-HT2C pIC50” value in test [4] is 8.24.
Consider `O=C(OC1CCN(CC2CC3c4ccccc4Cc4ccc(F)cc4C3O2)C1)C1CCCC1` (mixture of isomers) [Compound 14], for which the IC50 in test [1] was 4.17 nM; in test [2], 1230 nM; in test [3], 3.89 nM; in test [4], 3.31 nM.
For `COCC1(O)CCN(C[C@H]2C[C@@H]3c4ccccc4Cc4ccc(F)cc4[C@@H]3O2)CC1` [Compound 272] the same measures were 1.23 nM, 724 nM, 2.14 nM and 0.741 nM.
The matching figures for `Fc1ccc2c(c1)C1OC(CN3CCN(c4nc5ccccc5[nH]4)CC3)CC1c1ccccc1C2` (stereo not shown) [Compound 127]: 0.251 nM, 3800 nM, 22.4 nM and 4.17 nM.
The matching figures for `CSc1nccc(N2CCN(CC3CC4c5ccccc5Cc5ccc(F)cc5C4O3)CC2)n1` (stereo not shown) [Compound 124]: 8.91 nM, 2290 nM, 47.9 nM and 30.9 nM.
With `O=C(NCc1ccccc1)OCC1CCN(CC2CC3c4ccccc4Cc4ccc(F)cc4C3O2)C1` (mixture of isomers) [Compound 24], the IC50 in test [1] was 1.82 nM; in test [2] it was 2690 nM; in test [3], 4.27 nM; in test [4], 1.45 nM.
In the case of `COc1ccccc1OC1CCN(CC2CC3c4ccccc4Cc4ccc(F)cc4C3O2)C1` (mixture of isomers) [Compound 32], the IC50 was 2.19 nM in test [1], 7410 nM in test [2], 7.41 nM in test [3] and 0.912 nM in test [4].
The matching figures for `COc1ccc(N2CCN(CC3CC4c5ccccc5Cc5ccc(F)cc5C4O3)CC2)cc1` (stereo not shown) [Compound 116]: 9.77 nM, 7240 nM, 37.2 nM and 20 nM.
The matching figures for `COC1CCN(C[C@H]2C[C@@H]3c4ccccc4Cc4ccc(F)cc4[C@@H]3O2)C1` (stereo partly shown) [Compound 4]: under 10 nM, 5890 nM, 16.2 nM and 2.09 nM.
In the case of `COc1cccc(OC2CCN(CC3CC4c5ccccc5Cc5ccc(F)cc5C4O3)C2)c1` (mixture of isomers) [Compound 31], the IC50 in test [1] was 9.77 nM; in test [2], 4070 nM; in test [3], 13.5 nM; in test [4], 3.24 nM.
The matching figures for `COc1cc2c(cc1OC)CN(C[C@H]1C[C@@H]3c4ccccc4Cc4ccc(F)cc4[C@@H]3O1)CC2` [Compound 276]: 1.02 nM, over 10000 nM, 17 nM and 1.15 nM.
For `OCC1CCCCN1CC1CC2c3ccccc3Cc3ccc(F)cc3C2O1` (mixture of isomers) [Compound 146], the IC50 in test [1] was 16.6 nM; in test [2], over 10000 nM; in test [3], 81.3 nM; in test [4], 11.5 nM.
For `COC(=O)C1CCN(C[C@H]2C[C@@H]3c4ccccc4Cc4ccc(F)cc4[C@@H]3O2)C1` (single isomer, unassigned) [Compound 11, [2R-(2α, 3aα, 12bβ)]-(3′RS) 1-(11-fluoro-3,3a,8,12b-tetrahydro-2H-1-oxa-dibenzo[e,h]azulen-2-ylmethyl)-pyrrolidine-3-carboxylic acid methyl ester.oxalate (1:1)] the same measures were 2.04 nM, 8320 nM, 9.77 nM and 0.708 nM.
For `CC(C)(C)NC(=S)N1CCN(CC2CC3c4ccccc4Cc4ccc(F)cc4C3O2)CC1` (stereo not shown) [Compound 109] the same measures were 14.5 nM, 263 nM, 132 nM and 38.9 nM.
The matching figures for `CSc1ccc(NC(=O)C2CCN(CC3CC4c5ccccc5Cc5ccc(F)cc5C4O3)CC2)cc1` (stereo not shown) [Compound 183]: under 10 nM, over 10000 nM, 25.7 nM and 1.15 nM.
`COC(=O)c1ccc(OC2CCN(CC3CC4c5ccccc5Cc5ccc(F)cc5C4O3)C2)cc1` (stereo not shown) [Compound 30]: the IC50 in test [1] is 10.5 nM; in test [2], over 10000 nM; in test [3] it was 16.2 nM; in test [4], 5.75 nM.
With `CC(C)NC(=O)N1CCN(CC2CC3c4ccccc4Cc4ccc(F)cc4C3O2)CC1` (stereo not shown) [Compound 88], the IC50 in test [1] is 0.38 nM; in test [2], 6460 nM; in test [3], 22.9 nM; in test [4], 5.5 nM.
With `OCC1CN(CC2CC3c4ccccc4Cc4ccc(F)cc4C3O2)CCO1` (mixture of isomers) [Compound 128, [2R-(2aα, 3aα, 12bβ)]-(3′RS)-[4-(11-fluoro-3,3a,8,12b-tetrahydro-2H-1-oxa-dibenzo[e,h]azulen-2-ylmethyl)-morpholin-2-yl]-methanol.oxalate (1:1)], the IC50 was 4.37 nM in test [1], 2630 nM in test [2], 18.6 nM in test [3] and 11.7 nM in test [4].
The matching figures for `N#Cc1ccc2c(c1)[C@H]1C[C@@H](CN3CCC(O)C3)O[C@H]1c1cc(F)ccc1S2` (relative stereo) [Compound 260]: 2.24 nM, 912 nM, 24.5 nM and 3.09 nM.
For the compound `Fc1ccc2c(c1)[C@@H]1O[C@@H](CN3CCCNCC3)C[C@@H]1c1ccccc1C2.O=C(O)C(=O)O.O=C(O)C(=O)O` [Compound 267], in test [1], the “5-HT2A pIC50” value amounted to 7.84. Further, the “NET pIC50” value in test [2] is 5.10. Moreover, the “D2L pIC50” value in test [3] is listed as 6.81. In addition, in test [4], the “5-HT2C pIC50” value is 7.65.
Turning to `CN(C)C1CCN(CC2CC3c4ccccc4Cc4ccc(F)cc4C3O2)C1` (mixture of isomers) [Compound 9], the IC50 in test [1] was 9.12 nM; in test [2], 4570 nM; in test [3], 9.12 nM; in test [4], 9.55 nM.
